Common to all, as to format: in vivo
The subject of data set [1] is honeybees (Apis mellifera). Briefly: Bee acute oral toxicity. As to conditions: for LD50 / Mortality / Toxicity level: Oral toxicity. The protocol: (§1) The test bees were Italian bees (Apis mellifera), and the newly born adult worker bees (<24 h) were selected for drug drip treatment. Weigh 50 mg of test substance FLP and fully dissolve it in DMSO to obtain 10 × 10^4 mg A.I./L of stock liquid medicine; dissolve B4 fully in DMSO and fix the volume to a 1-ml volumetric flask to obtain 11.6 × 10^4 mg A.I./L stock solution.
Oral toxicity. Before the formal experiment, a pre-experiment was carried out. According to the formal experimental conditions, three to four dose groups were set at large intervals to observe the death of bees between 24 and 48 h and determine the linear range of the lethal effect of drugs on bees. According to the pre-test results, determine the concentration range of the formal test and set five to seven test dose groups. Starve bees for 2 h before being infected, and then eliminate bees that are dying or have abnormal behaviors; put 200 μL of test liquid medicine in the feeding tube, and after the liquid medicine is consumed (within 6 h), take out the feeder to measure the weight of the food that has not been consumed. Then, the bees were fed with sucrose solution without test samples. Cultivate in the dark. At the same time, feeding 50% sucrose solution as a blank control, the treatment group and the control group were set up with three replicates, and 20 bees were used in each replicate. According to the results of the pre-experiment, if the toxicity of the drug to bees is low, the upper limit dose of 100 μg a.i./bee is set for the limit test of bees, that is, when the tested substance reaches 100 μg a.i./bee, no bees die, so there is no need to continue the test. If the solubility of the test substance is less than 100 μg a. i./bee, the maximum solubility is adopted as the upper limit concentration. The test results were examined at 24 and 48 h, respectively, and the number of deaths and poisoning symptoms were recorded. The standard of death is touching the bee's body, and when it can't crawl, it is judged as death.
(§2) Statistical analysis. Using the statistical software SPSS16.0, the LD50 value and 95% confidence limit of the half lethal dose of the sample to bees were obtained by regression statistical analysis with the probit analysis method.

The subject of a further data set is Chilo suppressalis. Briefly: Insecticidal activity against Chilo suppressalis (soaking method). Particulars: 96 h, 400 μg/mL, 3rd instar larvae, counted 4 days later, read-out: Mortality rate (%) C. suppressalis. The text has this: (§3) Preparation of test agent. Dissolve accurately weighed tested compound in DMF to prepare 1% mother liquor, and then dilute it with distilled water containing 0.1% Tween-80 to corresponding concentrations for later use.
Insecticidal activity against Chilo suppressalis ([Huang et al., 2022]). The soaking method was adopted. The Zizania latifolia slices were soaked in a tested solution for 10 s, then taken out, and placed in a plastic Petri dish with filter paper to naturally dry in the shade. […] The result was counted 4 days later, and the no-response insect body when it was lightly touched with a brush was regarded as dead. Each treatment was repeated three times, and DMF without the tested compound was used as a blank control.
(§4) The insecticidal activities of the test compounds against the abovementioned five insects were calculated by the following formula: P1=(K/N)×100, (1) P2=(Pt−P0)/(1−P0)×100, (2) where P1 is the mortality rate; K is the dead insect number; N is the total number of experimental insects; P2 is the corrected mortality rate; Pt is the mortality rate of treatment; P0 is the mortality rate of CK. If the mortality rate of CK is less than 5%, without the required correction, and if the mortality rate of CK is between 5 and 20%, P2 should be calculated according to formula II.

For a further data set, the system named is Nilaparvata lugens. Briefly: Insecticidal activity against Nilaparvata lugens (Potter spray tower). As to conditions: 24 h, 3rd instar nymphae, 1 day after treatment, read-out: Mortality rate (%) N. lugens; for mortality at 400 µg/mL: 400 μg/mL; for mortality at 100 µg/mL: 100 μg/mL.
Source text: as §3
Insecticidal activity against Nilaparvata lugens ([Ghareeb et al., 2021]). The seedlings with two leaves and one heart were placed in a Petri dish with a bottom diameter of 3 cm and covered with white sand. After the 3rd instar nymphae of N. lugens were stunned by CO2, about 15 nymphae were received in each dish, and then 2.5 ml of the tested agent was sprayed with Potter spray tower. The mortality of N. lugens was investigated 1 day after the treatment. Each treatment was repeated three times, and DMF without the tested compound was used as a blank control.
as §4

Another data set relates to Aphis craccivora. Briefly: Insecticidal activity against Aphis craccivora (Potter spray tower). Particulars: 400 μg/mL, counted 24 h later, read-out: Mortality rate (%) A. craccivora. How it is done:
as §3
Insecticidal activity against Aphis craccivora ([Liu et al., 2022]). About 30 nymphs of alfalfa aphid were placed on a horsebean leaf dish, and then 2.5 ml of the tested agent was sprayed with Potter spray tower. After treatment, they were cultured in an observation room at 20–22°C. The result was counted 24 h later, and the no-response insect body when it was lightly touched with tweezers was regarded as dead. Each treatment was repeated three times, and DMF without the tested compound was used as a blank control.
as §4

The subject of another data set is Helicoverpa armigera. The data set can be described thus: Insecticidal activity against Helicoverpa armigera (soaking method). As to conditions: Helicoverpa armigera, 48 h; 400 μg/mL; 2nd instar larvae; counted 2 days later; read-out: Mortality rate (%) H. armigera.
Source text: as §3
Insecticidal activity against Helicoverpa armigera. The soaking method was adopted ([Yang et al., 2022]). After soaking a proper amount of corn leaves for 10 s, they were placed in a plastic Petri dish with filter paper and dried naturally in the shade. Ten larvae of the 2nd instar H. armigera were attached to each dish and placed in an observation room at 26°C with light (16/8 h). The result was counted 2 days later, and the no-response insect body when it was lightly touched with a brush was regarded as dead. Each treatment was repeated 3 times, and DMF without the tested compound was used as a blank control.
as §4

Another data set concerns Plutella xylostella. The data set can be described thus: Insecticidal activity against Plutella xylostella (soaking method). As to conditions: Plutella xylostella, 48 h, 2nd instar larvae, counted 2 days later, read-out: Mortality rate (%) P. xylostella; for mortality at 100 µg/mL: 100 μg/mL; for mortality at 400 µg/mL: 400 μg/mL; for mortality at 25 µg/mL: 25 μg/mL.
Source text: as §3
Insecticidal activity against Plutella xylostella ([Yang et al., 2021]). The soaking method was adopted. After soaking a proper amount of radish leaves for 10 s, it was placed in a plastic Petri dish with filter paper and dried naturally in the shade. Each dish was inoculated with 10 2nd instar P. xylostella larvae and placed in an observation room at 22°C with light (16/8 h). The result was counted 2 days later, and the no-response insect body when it was lightly touched with a brush was regarded as dead. Each treatment was repeated three times, and DMF without the tested compound was used as a blank control.
as §4

Data set [2] concerns honeybees (Apis mellifera). Briefly: Bee contact toxicity. As to conditions: for LD50 / Toxicity level / Mortality: Contact toxicity; for Mortality: 1 μL of 10 × 10^4 mg A.I./L per bee. The protocol:
as §1
Contact toxicity. 10 × 10^4 mg A.I./L of mother liquor was used as the test liquid, and 1 μL of the solution containing the tested drug was dripped onto the back of the front chest of bees by a micro-dropper. Then, bees were put into a beekeeping box and cultured in dark conditions at a temperature of 30 ± 1°C and relative humidity of 50%, with a 50% sucrose solution as food for 48 h. Taking the solvent drip bees without the drug to be tested as the blank control, the treatment group and the control group were set up with three replicates, and 10 bees were used in each replicate.
as §2

The values that follow come from publication PMC9574050, “Design, synthesis, and insecticidal activity of a novel series of flupyrimin analogs bearing 1-aryl-1H-pyrazol-4-yl subunits” (Frontiers in Chemistry, 2022).

On to `COCC(=O)/N=c1\ccccn1Cc1cnn(-c2ccc(Cl)cc2)c1C(F)(F)F` [Compound B4, (E)-N-(1-((1-(4-chlorophenyl)-5-(trifluoromethyl)-1H-pyrazol-4-yl)methyl)pyridin-2(1H)-ylidene)-2-methoxyacetamide], for which the LD50 in data set [1] (24 h), in data set [1] (48 h), in data set [2] (24 h) and in data set [2] (48 h) was >11.0 μg a.i./bee each time. Further, the Mortality is reported as 15 in data set [1] (24 h), 17 in data set [1] (48 h), 3 in data set [2] (24 h) and 3 in data set [2] (48 h). Also, the Toxicity level result in data set [1] (24 h), in data set [1] (48 h), in data set [2] (24 h) and in data set [2] (48 h) was “Low toxicity” in each case. For the same compound, the LD50 oral toxicity in data set [1] (adult bees, time not stated) is reported as > 11.0 μg a.i./bee. Further, the mortality at 400 µg/mL stood at 0% in the data set with Chilo suppressalis; 0% in the data set on Nilaparvata lugens; 0% in the data set with Aphis craccivora; 0% in the data set on Helicoverpa armigera; 100% in the data set on Plutella xylostella. In the data set with Plutella xylostella, the mortality at 100 µg/mL was determined as 96.7%. Besides, the LD50 contact toxicity in data set [2] (adult bees, time not stated) is listed as > 11.0 μg a.i./bee.
As to `Cn1cc(C(=O)/N=c2\ccccn2Cc2cnn(-c3cccc(F)c3)c2C(F)(F)F)c(C(F)F)n1` [Compound D3, (E)-3-(difluoromethyl)-N-(1-((1-(3-fluorophenyl)-5-(trifluoromethyl)-1H-pyrazol-4-yl)methyl)pyridin-2(1H)-ylidene)-1-methyl-1H-pyrazole-4-carboxamide], the mortality at 400 µg/mL with Chilo suppressalis turned out to be 0%; in the data set with Nilaparvata lugens it was 100%; with Aphis craccivora, 0%; with Helicoverpa armigera, 0%; in the data set with Plutella xylostella, 63.3%. Besides, the mortality at 100 µg/mL with Nilaparvata lugens was 0%.
`Cn1cc(C(=O)/N=c2\ccccn2Cc2cnn(-c3ccc(Cl)cc3)c2C(F)(F)F)c(C(F)F)n1` [Compound D4, (E)-N-(1-((1-(4-chlorophenyl)-5-(trifluoromethyl)-1H-pyrazol-4-yl)methyl)pyridin-2(1H)-ylidene)-3-(difluoromethyl)-1-methyl-1H-pyrazole-4-carboxamide]: the mortality at 400 µg/mL in the data set with Chilo suppressalis came to 0%; with Nilaparvata lugens, 0%; with Aphis craccivora it was 0%; in the data set on Helicoverpa armigera, 0%; in the data set with Plutella xylostella it was 100%. Moreover, the mortality at 25 µg/mL with Plutella xylostella turned out to be 6.7%. Further, in the data set with Plutella xylostella, the mortality at 100 µg/mL was determined as 60%.
For `Cn1cc(C(=O)/N=c2\ccccn2Cc2cnn(-c3ccc(C(F)(F)F)cc3)c2C(F)(F)F)c(C(F)F)n1` [Compound D5, (E)-3-(difluoromethyl)-1-methyl-N-(1-((5-(trifluoromethyl)-1-(4-(trifluoromethyl)phenyl)-1H-pyrazol-4-yl)methyl)pyridin-2(1H)-ylidene)-1H-pyrazole-4-carboxamide], the mortality at 400 µg/mL with Chilo suppressalis was 0%; in the data set with Nilaparvata lugens it was 0%; in the data set on Aphis craccivora, 0%; in the data set on Helicoverpa armigera, 0%; in the data set with Plutella xylostella it was 63.3%.
Turning to `Cn1cc(C(=O)/N=c2\ccccn2Cc2cnn(-c3cccc(Cl)c3)c2C(F)F)c(C(F)F)n1` [Compound D6, (E)-N-(1-((1-(3-chlorophenyl)-5-(difluoromethyl)-1H-pyrazol-4-yl)methyl)pyridin-2(1H)-ylidene)-3-(difluoromethyl)-1-methyl-1H-pyrazole-4-carboxamide], the mortality at 400 µg/mL with Chilo suppressalis came to 0%; with Nilaparvata lugens it was 100%; in the data set with Aphis craccivora, 0%; in the data set on Helicoverpa armigera, 0%; in the data set with Plutella xylostella, 100%. The mortality at 100 µg/mL was 0% in the data set with Nilaparvata lugens and 100% in the data set with Plutella xylostella. For the same compound, the mortality at 25 µg/mL in the data set on Plutella xylostella stood at 56.7%.
`Cn1cc(C(=O)/N=c2\ccccn2Cc2cnn(-c3ccc(F)cc3)c2C(F)F)c(C(F)F)n1` [Compound D7, (E)-3-(difluoromethyl)-N-(1-((5-(difluoromethyl)-1-(4-fluorophenyl)-1H-pyrazol-4-yl)methyl)pyridin-2(1H)-ylidene)-1-methyl-1H-pyrazole-4-carboxamide]: the mortality at 400 µg/mL in the data set on Chilo suppressalis was determined as 0%; in the data set on Nilaparvata lugens, 100%; with Aphis craccivora, 0%; in the data set on Helicoverpa armigera it was 0%; in the data set with Plutella xylostella, 73.3%. Besides, the mortality at 100 µg/mL with Nilaparvata lugens came to 0%.

Usually mortality stands for the share of the test organisms that died.
